The values below come from patent US5563130A, “Methods for inhibiting angiogenesis, proliferation of endothelial or tumor cells and tumor growth” (American Cyanamid Company, priority 1994, dated 1996).

The test system of assay [1] is Adult Bovine Aortic Endothelial (ABAE) cell line. The assay can be described thus: Antiproliferative activity in ABAE cells, PROTOCOL 3 (4 days, cell count). The format is cell-based. The note with it: Bos taurus, 96 h, PROTOCOL 3, FIG. 1, read-out: inhibits 50% of cell growth. The protocol:
(§1) PROTOCOL 1, 2, and 3 are described in greater detail hereinbelow. In general, according to PROTOCOLS 1 and 2, the target ABAE and/or Human Tumor cells are exposed to the compound of Formula I for 48 hours. PROTOCOL 3 exposes ABAE cell to the compound for 4 days. A detailed description of the protocol is as follows:
Antiproliferative Activity in Adult Bovine Aortic Endothelial (ABAE) Cell Line
ABAE cells are grown in DMEM media (Mediatech, Washington, D.C.) supplemented with 10% calf serum (Hyclone). ABAE cells are plated in 24-well dishes at 8,000 cells/well, followed by the addition of increasing concentrations of 7-[substituted amino]-9-[(substituted glycyl)amido]-6-demethyl-6-deoxytetracyclines. After four days, the cells are detached and counted. […] The growth inhibition (I) as % of control is calculated as follows: [formula] wherein: Nc is the number of cells in untreated wells;
Nt is the number of cells in treated wells;
No is the number of plated cells.
IC50 of growth inhibition is determined from the sets of I values plotted by Kaleidograph software (Abelbeck Software).
In addition FIG. 1, presents the dose response curve of the compound of Example 6 for the above ABAE cell line obtained by PROTOCOL 3.

The subject of assay [2] is A2780/DDP. The assay can be described thus: Antiproliferative activity in human ovarian tumor cell line A2780/DDP. Type of assay: cell-based. To be noted: Homo sapiens, A2780/DDP, read-out: A2780/DDP/DDP IC50, PROTOCOL 1 and PROTOCOL 2. The procedure: as §1
(§2) Antiproliferative Activity in Human Tumor and Adult Bovine Aortic Endothelial (ABAE) Cell Lines
(§3) The antiproliferative activity of the compounds of Formula I of the present invention is evaluated in a panel comprised of human tumor cell lines and an adult bovine aortic endothelial cell line (ABAE). The human tumor cell lines are from:
(§4) All cell lines are maintained in log phase in RPMI 1640 media, supplemented with 5% fetal calf serum, penicillin/streptomycin and 2 mM L-glutamine. Cultures are renewed after 20 passages with cells from a fresh stock of batch-frozen early passage cells. Cell lines are routinely checked for mycoplasma contamination (Genprobe). In a laminar flow hood, cells (1-5×10^4) are plated into 96-well microtiter plates in a volume of 0.1 ml/well with a bulk microtiter dispenser (Denley). […] At this concentration, dimethylsulfoxide has no effect on cell growth. Compounds are added using a Tomtec dispenser which simultaneously dispenses from one 96-well plate, containing the drug dilutions, to the plates containing the cells. After two days of continuous drug exposure, 50% cold trichloroacetic acid (TCA) is added to 10% final concentration to fix the cells, and after 60 minutes at 4° C., the TCA is aspirated and the plates are washed 5 times with deionized water using a microtiter plate washer. The number of cells on the plate are quantitated using a protein dye-binding assay (Monks et al., 1991). A 0.4% solution of the dye, sulforhodamine B, in glacial acetic acid is added to the plates, and the plates are washed 5 times with 1% glacial acetic acid using the automatic plate washed. The bound stain is solubilized with 0.1 ml of 10 mM Tris base. The optical densities are read from an automatic spectrophotometric plate reader (Dynatech) directly to a main frame computer (VAX 8600).
(§5) Positive controls, that include standard chemotherapeutic drugs (i.e., adriamycin, cisplatin, etc.), are included in every experiment.
(§6) Background optical density measurements (complete media-cells, and complete media+drug-cells) are automatically subtracted from the appropriate control and test wells. Mean values and standard errors are determined from duplicate wells. A measure is also made of the optical density at time when the drugs are added. The number of cells after treatment (P), as % of control, is calculated for every concentration of drug, as follows: [formula] wherein: T is optical density measurement for treated cells after 48 hours;
(§7) C is optical density measurement for untreated cells after 48 hours;
(§8) Co is optical density measurement for cells at the time of drug addition.
(§9) IC50 of growth inhibition is calculated from the sets of P values using the RS-1 data package (BBN Software).
(§10) The antiproliferative activity of the compounds of Formula I is evaluated in a panel comprised of human tumor cell lines and an adult bovine aortic endothelial cell line (ABAE) as listed in PROTOCOL 1. This assay is a modification of PROTOCOL 1. The modifications include:
(§11) 1) each concentration for each compound is tested in a single well;
(§12) 2) compounds are tested at 20, 4, 0.8, 0.16 microgram/ml and additionally in some experiments at 100 and 0.32 microgram/ml;
(§13) 3) samples are pipetted into a 96-well plate for each of the cell lines by a Beckman Biomek 1000 SL robot;
(§14) 4) after fixing with TCA each well is washed with 0.35 ml distilled water twice, not five times;
(§15) 5) after staining with sulforhodamine B each well is washed 3 times, not five times; […]

Assay [3] concerns HTB 16. The assay can be described thus: Antiproliferative activity in human tumor cell line HTB 16. The format is cell-based. To be noted: Homo sapiens; ovarian tumor line; PROTOCOL 1 and PROTOCOL 2. The procedure: as §1, §2, §3, §4, §5, §6, §7, §8, §9, §10, §11, §12, §13, §14, §15
The test system of assay [4] is Human Tumor Cell lines. Description: Antiproliferative activity in panel of human tumor cell lines. To be noted: average over the tested human tumor cell lines. The format is cell-based. The protocol: as §1, §2, §3
2) Colon tumors: MIP, CaCo2, and SW620.
as §4, §5, §6, §7, §8, §9, §10, §11, §12, §13, §14, §15

For assay [5], the system named is angiogenesis. To be noted: Cancer Research 51, 672-675, Brem et al; vs combination of heparin and cortisone; cited from earlier work.
Assay [6] deals with tumor. To be noted: in conjunction with cancer chemotherapy or radiation therapy; Teicher et al; cited from earlier work.

≈ marks a conversion by molar mass, not a printed value.

`CN(C)c1ccc(O)c2c1C[C@H]1C[C@H]3[C@H](N(C)C)C(O)=C(C(N)=O)C(=O)[C@@]3(O)C(O)=C1C2=O` [Minocycline, reference compound]: the IC50 is about 50 µg/mL (≈ 109 µM) in assay [1], 6.1 µg/mL (≈ 13.3 µM) in assay [2], 5.8 µg/mL (≈ 12.7 µM) in assay [3] and 6.6 µg/mL (≈ 14.4 µM) in assay [4]. Moreover, in assay [5], the “extent of angiogenesis inhibition” value was “comparable to that of the combination therapy of heparin and cortisone”. In addition, in assay [6], the number of metastases result was “reduced”. In addition, in assay [6], the tumor growth entry was “decreased”.
